# Legend:
# Type in all cases: biochemical
# [1] = target: T1, hSARM1 full length (Homo sapiens, UniProt Q6SZW1); test: NADase inhibition by pyridine ribosides (HPLC); settings: for NADase inhibition (in words): hSARM1, riboside fixed at 200 μM, NAD […]; for IC50: hSARM1 full length, saturating NAD ([…]), preliminary
# T1 construct: Human recombinant SARM1 full length proteins (wild-type and E642A mutant); made in house
# T1 sequence (Q6SZW1 28-724): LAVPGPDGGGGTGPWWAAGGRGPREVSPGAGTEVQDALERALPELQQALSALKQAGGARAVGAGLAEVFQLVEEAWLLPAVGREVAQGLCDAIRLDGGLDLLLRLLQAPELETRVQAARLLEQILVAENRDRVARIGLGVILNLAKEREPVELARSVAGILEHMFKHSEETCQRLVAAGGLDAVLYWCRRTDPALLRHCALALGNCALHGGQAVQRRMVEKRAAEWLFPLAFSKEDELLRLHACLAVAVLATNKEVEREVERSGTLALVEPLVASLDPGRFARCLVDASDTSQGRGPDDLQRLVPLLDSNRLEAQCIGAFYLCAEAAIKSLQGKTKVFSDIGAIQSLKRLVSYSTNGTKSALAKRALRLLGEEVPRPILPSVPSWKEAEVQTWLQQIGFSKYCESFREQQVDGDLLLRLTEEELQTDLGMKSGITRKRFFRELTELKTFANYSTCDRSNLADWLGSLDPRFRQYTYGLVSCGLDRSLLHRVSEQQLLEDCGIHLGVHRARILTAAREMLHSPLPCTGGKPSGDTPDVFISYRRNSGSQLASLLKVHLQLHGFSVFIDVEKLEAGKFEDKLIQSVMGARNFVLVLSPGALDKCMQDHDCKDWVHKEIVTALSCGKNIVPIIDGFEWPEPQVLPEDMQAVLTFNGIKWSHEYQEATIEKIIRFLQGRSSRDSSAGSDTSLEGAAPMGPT
# Description: (§1) hSARM1 species were routinely assayed by the NAD/NADH-Glo^TM Assay (Promega) while both Aplysia cyclase and CD38 were assayed by fluorometry using ϵNAD ([Orsomando et al., 2000]). […] Other reagents used in addition to, or in place of those above are detailed in text or in figure legends, for example metal ions, free bases, dinucleotide analogues, mononucleotides, and ribosides. Assays were all carried out at 25°C except for temperature studies. Reactions were stopped by HClO4/K2CO3 and analysed by C18-HPLC as reported ([Mori et al., 2014]). Only the acid labile NADH and NADPH were treated with 1 N NaOH and neutralized using 1:1 vol of 1.73 M KH2CO3 while the highly hydrophobic metabolites vacor, VAD, VMN and VR, were analysed by a modified C18-HPLC method ([Buonvicino et al., 2018]). Reaction products were quantified from peak areas (see Figure 2A) based on coelution with standards (except for cyclic products from NAD analogues that were not available and were attributed based on UV-spectra and retention times as predicted). Rates were calculated as follows. Hydrolysis and cyclization were measured from product generation from the respective individual dinucleotide substrate used, e.g., free and cyclic ADP-ribosyl moieties from NAD (Figure 1B). A basal value for hydrolysis/cyclization was taken as sum of these latter two products. In addition to that value, base exchange or transglycosidation was calculated from the expected dinucleotide analog formed in the presence of the corresponding free base, e.g., AcPyrAD from AcPyr and NAD. The measured level of overall formed products matched in all cases the dinucleotide substrate consumed and the corresponding pyridine base released, according to the reaction scheme (Figure 1B). Furthermore, enzyme amounts forming 1 μmol/min of overall products above were referred to as single units (U) of activity and initial rates were always considered, for example until a maximum of 20% of the original substrate had been consumed and all products were still accumulating at a nearly linear rate.
# (§2) Inhibition by ribosides was assayed by HPLC initially at fixed 200 μM of each NR, NaR or VR and optimized NAD concentrations for the different enzymes (see Figure 6 legend).
# [2] = target: T2, hSARM1 SAM-TIR (Homo sapiens, UniProt Q6SZW1); test: Base exchange reactions at neutral pH (HPLC)
# T2 construct: made in house
# T2 sequence (Q6SZW1 409-724): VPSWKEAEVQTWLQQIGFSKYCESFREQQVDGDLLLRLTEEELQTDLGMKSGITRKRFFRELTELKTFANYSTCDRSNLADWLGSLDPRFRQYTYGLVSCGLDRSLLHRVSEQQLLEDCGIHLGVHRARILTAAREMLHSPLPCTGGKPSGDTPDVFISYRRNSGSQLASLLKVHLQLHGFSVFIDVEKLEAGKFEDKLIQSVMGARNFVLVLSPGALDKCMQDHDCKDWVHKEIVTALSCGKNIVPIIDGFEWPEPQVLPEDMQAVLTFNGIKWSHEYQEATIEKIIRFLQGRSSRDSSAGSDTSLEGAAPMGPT
# Description: (§3) Multiple time stops from individual assays as above were analyzed for linearity, then extents of hydrolysis (white bars), cyclization (red bars), or base exchange (black bars) were calculated from each corresponding product as shown in Figure 1B and STAR methods. […] See also Figures S3–S5, and Table S1
# (§4) Rates were calculated as follows.
# [3] = target: T1, hSARM1 full length; test: Base exchange reactions at neutral pH (HPLC)
# Description: as §3
# as §1, with “NAD.” for “NAD. The measured level of overall formed products matched in all cases the dinucleotide substrate consumed and the corresponding pyridine base released, according to the reaction scheme (Figure 1B). Furthermore, enzyme amounts forming 1 μmol/min of overall products above were referred to as single units (U) of activity and initial rates were always considered, for example until a maximum of 20% of the original substrate had been consumed and all products were still accumulating at a nearly linear rate.”
# [4] = target: T3, hCD38 (Homo sapiens, UniProt P28907); test: Base exchange reactions at neutral pH (HPLC)
# T3 construct: a soluble fragment Val43-Ile300 with 6x-His tag at C terminus; 6xHis (C); purchased R&D Systems
# T3 sequence (P28907 43-300): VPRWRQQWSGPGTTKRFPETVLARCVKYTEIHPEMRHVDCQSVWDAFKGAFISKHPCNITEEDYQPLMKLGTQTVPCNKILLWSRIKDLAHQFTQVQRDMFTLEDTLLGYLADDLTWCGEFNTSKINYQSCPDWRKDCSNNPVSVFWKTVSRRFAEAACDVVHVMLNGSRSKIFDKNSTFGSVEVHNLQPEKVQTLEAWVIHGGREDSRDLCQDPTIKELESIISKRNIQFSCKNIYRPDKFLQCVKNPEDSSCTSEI
# Description: as §3
# as §1, with “NAD.” for “NAD. The measured level of overall formed products matched in all cases the dinucleotide substrate consumed and the corresponding pyridine base released, according to the reaction scheme (Figure 1B). Furthermore, enzyme amounts forming 1 μmol/min of overall products above were referred to as single units (U) of activity and initial rates were always considered, for example until a maximum of 20% of the original substrate had been consumed and all products were still accumulating at a nearly linear rate.”
# [5] = target: T4, Aplysia californica ADP ribosyl cyclase (Aplysia californica, UniProt P29241); test: Base exchange reactions at neutral pH (HPLC); design: purchased Merck A8950
# T4 sequence (P29241 25-282): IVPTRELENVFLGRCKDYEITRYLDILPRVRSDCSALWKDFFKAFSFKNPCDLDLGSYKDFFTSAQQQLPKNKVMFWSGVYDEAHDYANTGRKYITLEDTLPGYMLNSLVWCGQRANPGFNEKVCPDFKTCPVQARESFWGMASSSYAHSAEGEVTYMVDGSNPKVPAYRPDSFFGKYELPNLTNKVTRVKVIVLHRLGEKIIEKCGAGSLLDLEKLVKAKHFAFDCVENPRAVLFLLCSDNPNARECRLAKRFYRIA
# Description: as §3, §4
# [6] = target: T2, hSARM1 SAM-TIR; test: NADase inhibition by pyridine ribosides, IC50 and inhibition kinetics (HPLC); settings: for IC50: NAD […], preliminary; for Ki: variable NAD 15-600 μM
# Description: as §1, with “NAD.” for “NAD. The measured level of overall formed products matched in all cases the dinucleotide substrate consumed and the corresponding pyridine base released, according to the reaction scheme (Figure 1B). Furthermore, enzyme amounts forming 1 μmol/min of overall products above were referred to as single units (U) of activity and initial rates were always considered, for example until a maximum of 20% of the original substrate had been consumed and all products were still accumulating at a nearly linear rate.”
# as §2
# [7] = NAD […] alone or + AcPyr 2 mM / Vacor 0.5 mM / Na 2 mM
# [8] = NADP […] alone or + AcPyr 2 mM / Vacor 0.5 mM / Na 2 mM
# [9] = hSARM1 full length +NMN 0.2 mM, NAD […]
# [10] = hSARM1 full length +NMN 0.2 mM, NADP […]
# [11] = hSARM1 full length +VMN 0.05 mM, NAD […]
# [12] = hSARM1 full length +VMN 0.05 mM, NADP […]
structure (smiles),measurement,setting,value
"NC(=O)c1ccc[n+]([C@@H]2O[C@H](CO)[C@@H](O)[C@H]2O)c1 [NR, nicotinamide riboside]",NADase inhibition (in words),[1],inactive
"O=C(O)c1cccnc1 [Na, nicotinic acid]",rate,[2]; [7],315.2 ±69.6 mU/mg
same,rate,[2]; [8],242.0 ±37.3 mU/mg
same,"base exchange, share of products",[3]; [9],1.58%
same,"cyclization, share of products",[3]; [9],8.35%
same,"hydrolysis, share of products",[3]; [9],90.07%
same,rate,"[3]; hSARM1 full length +NMN 0.2 mM, NAD […] alone or + free base",201.5 ±27.9 mU/mg
same,rate (relative fold),"[3]; hSARM1 full length +NMN 0.2 mM, NAD […], relative to NAD alone without trigger",9.23 ±1.28 fold
same,"base exchange, share of products",[3]; [10],1.48%
same,"cyclization, share of products",[3]; [10],~ 0.05%
same,"hydrolysis, share of products",[3]; [10],98.47%
same,rate,"[3]; hSARM1 full length +NMN 0.2 mM, NADP […] alone or + free base",131.9 ±10.5 mU/mg
same,rate (relative fold),"[3]; hSARM1 full length +NMN 0.2 mM, NADP […], relative to NADP alone without trigger",8.98 ±0.711 fold
same,"base exchange, share of products",[3]; [11],1.68%
same,"cyclization, share of products",[3]; [11],6.44%
same,"hydrolysis, share of products",[3]; [11],91.88%
same,rate,"[3]; hSARM1 full length +VMN 0.05 mM, NAD […] alone or + free base",199.0 ±17.6 mU/mg
same,rate (relative fold),"[3]; hSARM1 full length +VMN 0.05 mM, NAD […], relative to NAD alone without trigger",9.12 ±0.805 fold
same,"base exchange, share of products",[3]; [12],1.28%
same,"cyclization, share of products",[3]; [12],0.69%
same,"hydrolysis, share of products",[3]; [12],98.03%
same,rate,"[3]; hSARM1 full length +VMN 0.05 mM, NADP […] alone or + free base",147.6 ±4.76 mU/mg
same,rate (relative fold),"[3]; hSARM1 full length +VMN 0.05 mM, NADP […], relative to NADP alone without trigger",10.04 ±0.324 fold
same,rate,"[3]; hSARM1 full length, no trigger, NAD […] alone or + AcPyr 2 mM / Vacor 0.5 mM / Na 2 mM, pH 7.5",23.3 ±0.83 mU/mg
same,rate,"[3]; hSARM1 full length, no trigger, NADP […] alone or + AcPyr 2 mM / Vacor 0.5 mM / Na 2 mM, pH 7.5",17.3 ±0.54 mU/mg
same,"base exchange products VAD(P) or NaAD(P), share of total products","[3]; hSARM1 full length, NAD or NADP 250 μM, vacor 0.5 mM, Na 2 mM",2%–3%
same,rate,[4]; [7],7934 ±1182 mU/mg
same,rate,[4]; [8],3189 ±622 mU/mg
same,rate,[5]; [7],14595 ±3147 mU/mg
same,rate,[5]; [8],9872 ±1846 mU/mg
"O=C([O-])c1ccc[n+]([C@@H]2O[C@H](CO)[C@@H](O)[C@H]2O)c1 [NaR, nicotinic acid riboside]",inhibition type,[6],mixed-type inhibition
same,IC50,[6],36 µM
same,Ki,[6],15 µM
same,IC50,[1],87 µM
"O=C(NCc1ccc[n+]([C@@H]2O[C@H](CO)[C@@H](O)[C@H]2O)c1)Nc1ccc([N+](=O)[O-])cc1 [VR, vacor riboside]",inhibition type,[6],mixed-type inhibition
same,IC50,[6],61 µM
same,Ki,[6],25.9 µM
same,NADase inhibition (in words),[1],strongly inhibited
same,IC50,[1],154 µM

# — paper PMC8844822, “SARM1 is a multi-functional NAD(P)ase with prominent base exchange activity, all regulated bymultiple physiologically relevant NAD metabolites” (iScience, 2022)
